Measurements as given in patent US20260274892A1, “MACROCYCLIC BROAD SPECTRUM ANTIBIOTICS” (RQx Pharmaceuticals, Inc., priority 2017, published 2026).

Test system: Escherichia coli ATCC 25922
Test: Minimum inhibitory concentration (MIC), CLSI broth micro-dilution, E. coli
Format: cell-based
Conditions: Escherichia coli
In short: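 Colonies grown 20 h at 35° C on Trypticase Soy agar (MRSA) or Luria agar (E. coli) were suspended in cation-adjusted Mueller Hinton broth with 0.002% Tween-80. Suspensions were added at OD600 0.0005 to 10-point twofold compound dilutions, then incubated 22 h at 35° C.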

[1] = ATCC25922, 22 h, Table 7, cation adjusted Mueller Hinton Broth + 0.002% Tween-80, 35° C.
[2] = ATCC25922, Table 7, cation adjusted Mueller Hinton Broth + 0.002% Tween-80, 35° C., 22 hours
[3] = ATCC25922, 22 h, Table 6, cation adjusted Mueller Hinton Broth + 0.002% Tween-80, 35° C.
[4] = ATCC25922, Table 6, cation adjusted Mueller Hinton Broth + 0.002% Tween-80, 35° C., 22 hours

Cc1nc(-c2ccc(C(C)(C)C)cc2)nc(C)c1C(=O)N[C@@H](CCN)C(=O)N(C)[C@@H]1C(=O)N[C@@H](C)C(=O)N[C@H](C(=O)NCC#N)Cc2ccc(N)c(c2)-c2cc1ccc2OCCN (racemic) [Compound 624, rac-(8S,11S,14S)-3-amino-18-(2-aminoethoxy)-N-(cyanomethyl)-11-methyl-14-[methyl-[rac-(2S)-4-amino-2-[[2-(4-tert-butylphenyl)-4,6-dimethyl-pyrimidine-5-carbonyl]amino]butanoyl]amino]-10,13-dioxo-9,12-diazatricyclo[13.3.1.12,6]icosa-1(18),2(20),3,5,15(19),16-hexaene-8-carboxamide]
MIC [1]: 0.38 µM

COc1cc(O)c2cc1-c1cc(ccc1OCCN)[C@H](N(C)C(=O)[C@H](CCN)NC(=O)c1c(C)nc(-c3ccc(C(C)(C)C)cc3)nc1C)C(=O)N[C@@H](C)C(=O)N[C@H](C(=O)NCC#N)C2 (racemic) [Compound 625, rac-(8S,11S,14S)-18-(2-aminoethoxy)-N-(cyanomethyl)-5-hydroxy-3-methoxy-11-methyl-14-[methyl-[rac-(2S)-4-amino-2-[[2-(4-tert-butylphenyl)-4,6-dimethyl-pyrimidine-5-carbonyl]amino]butanoyl]amino]-10,13-dioxo-9,12-diazatricyclo[13.3.1.12,6]icosa-1(18),2(20),3,5,15(19),16-hexaene-8-carboxamide]
MIC [2]: 0.38 µM

Cc1nc(-c2ccc(C(C)(C)C)cc2)nc(C)c1C(=O)N[C@@H](CCN)C(=O)N(C)[C@@H]1C(=O)N[C@@H](C)C(=O)N[C@H](C(=O)NCC#N)Cc2cc(c(O)cc2CN)-c2cc1ccc2OCCN (racemic) [Compound 626, rac-(8S,11S,14S)-18-(2-aminoethoxy)-5-(aminomethyl)-N-(cyanomethyl)-3-hydroxy-11-methyl-14-[methyl-[rac-(2S)-4-amino-2-[[2-(4-tert-butylphenyl)-4,6-dimethyl-pyrimidine-5-carbonyl]amino]butanoyl]amino]-10,13-dioxo-9,12-diazatricyclo[13.3.1.12,6]icosa-1(18),2(20),3,5,15(19),16-hexaene-8-carboxamide]
MIC [2]: 0.25 µM

COc1cc(OCCN)c2cc1-c1cc(ccc1OCCN)[C@H](N(C)C(=O)[C@H](CNS(N)(=O)=O)NC(=O)c1c(C)nc(-c3ccc(C(C)(C)C)cc3)nc1C)C(=O)N[C@@H](C)C(=O)N[C@H](C(=O)NCC#N)C2 (racemic) [Compound 627, rac-(8S,11S,14S)-5,18-bis(2-aminoethoxy)-N-(cyanomethyl)-3-methoxy-11-methyl-14-[methyl-[rac-(2S)-2-[[2-(4-tert-butylphenyl)-4,6-dimethyl-pyrimidine-5-carbonyl]amino]-3-(sulfamoylamino)propanoyl]amino]-10,13-dioxo-9,12-diazatricyclo[13.3.1.12,6]icosa-1(18),2(20),3,5,15(19),16-hexaene-8-carboxamide]
MIC [2]: 0.5 µM

Cc1nc(-c2ccc(C(C)(C)C)cc2)nc(C)c1C(=O)N[C@@H](CNS(N)(=O)=O)C(=O)N(C)[C@@H]1C(=O)N[C@@H](C)C(=O)N[C@H](C(=O)NCC#N)Cc2cc(c(O)cc2OCCN)-c2cc1ccc2OCCN (racemic) [Compound 628, rac-(8S,11S,14S)-5,18-bis(2-aminoethoxy)-N-(cyanomethyl)-3-hydroxy-11-methyl-14-[methyl-[rac-(2S)-2-[[2-(4-tert-butylphenyl)-4,6-dimethyl-pyrimidine-5-carbonyl]amino]-3-(sulfamoylamino)propanoyl]amino]-10,13-dioxo-9,12-diazatricyclo[13.3.1.12,6]icosa-1(18),2(20),3,5,15(19),16-hexaene-8-carboxamide]
MIC [2]: 0.44 µM

Cc1nc(-c2ccc(C(C)(C)C)cc2)nc(C)c1C(=O)N[C@@H](CCN)C(=O)N(C)[C@@H]1C(=O)N[C@@H](C)C(=O)N[C@H](C(=O)NCC#N)Cc2ccc(OCCN)c(c2)-c2cc1ccc2CN (racemic) [Compound 634, rac-(8S,11S,14S)-3-(2-aminoethoxy)-18-(aminomethyl)-N-(cyanomethyl)-11-methyl-14-[methyl-[rac-(2S)-4-amino-2-[[2-(4-tert-butylphenyl)-4,6-dimethyl-pyrimidine-5-carbonyl]amino]butanoyl]amino]-10,13-dioxo-9,12-diazatricyclo[13.3.1.12,6]icosa-1(18),2,4,6(20),15(19),16-hexaene-8-carboxamide]
MIC [1]: 0.25 µM

Cc1nc(-c2ccc(C(C)(C)C)cc2)ncc1C(=O)N[C@@H](CCN)C(=O)N(C)[C@@H]1C(=O)N[C@@H](C)C(=O)N[C@H](C(=O)O)Cc2ccc(OCCN)c(c2)-c2cc1ccc2OCCN (racemic) [Compound 640, rac-(8S,11S,14S)-3,18-bis(2-aminoethoxy)-11-methyl-14-[methyl-[rac-(2S)-4-amino-2-[[2-(4-tert-butylphenyl)-4-methyl-pyrimidine-5-carbonyl]amino]butanoyl]amino]-10,13-dioxo-9,12-diazatricyclo [13.3.1.12,6]icosa-1(18),2(20),3,5,15(19), 16-hexaene-8-carboxylic acid]
MIC (ATCC25922, 22 h, Table 8, cation adjusted Mueller Hinton Broth + 0.002% Tween-80, 35° C.): 0.25 µM

Cc1nc(-c2ccc(C(C)(C)C)cc2)nc(C)c1C(=O)N[C@@H](CCN)C(=O)N(C)[C@@H]1C(=O)N[C@@H](C)C(=O)N[C@H](C(=O)NCC#N)Cc2ccc3c(c2)-c2cc1ccc2OCC(O)(CN)CO3 (some centres unmarked) [Compound 440]
MIC [3]: 1 µM

C[C@@H]1NC(=O)[C@@H](N(C)C(=O)[C@H](CCN)NC(=O)C2C3CC(c4ccc(C(C)(C)C)cc4)CC32)c2ccc(OCCN)c(c2)-c2cc(ccc2OCCN)C[C@@H](C(=O)NCC#N)NC1=O (some centres unmarked) [Compound 488]
MIC [3]: 0.5 µM

CC(=O)NCC[C@H](NC(=O)c1c(C)nc(-c2ccc(OC3CCCCC3)cc2)nc1C)C(=O)N(C)[C@@H]1C(=O)N[C@@H](C)C(=O)N[C@H](C(=O)NCC#N)Cc2ccc(OCCN)c(c2)-c2cc1ccc2OCCN [Compound 496, (8S,11S,14S)-14-[[(2S)-4-acetamido-2-[[2-[4-(cyclohexoxy)phenyl]-4,6-dimethyl-pyrimidine-5-carbonyl]amino]butanoyl]-methyl-amino]-3,18-bis(2-aminoethoxy)-N-(cyanomethyl)-11-methyl-10,13-dioxo-9,12-diazatricyclo[13.3.1.12,6]icosa-1(18),2(20),3,5,15(19),16-hexaene-8-carboxamide]
MIC [4]: 1 µM

Cc1nc(-c2ccc(OC3CCCCC3)cc2)nc(C)c1C(=O)N[C@@H](CC(N)=O)C(=O)N(C)[C@@H]1C(=O)N[C@@H](C)C(=O)N[C@H](C(=O)NCC#N)Cc2ccc(OCCN)c(c2)-c2cc1ccc2OCCN [Compound 506, (2S)-N-[(7S,10S,13S)-3,18-bis(2-aminoethoxy)-13-(cyanomethylcarbamoyl)-10-methyl-8,11-dioxo-9,12-diazatricyclo[13.3.1.12,6]icosa-1(19),2,4,6(20),15,17-hexaen-7-yl]-2-[[2-[4-(cyclohexoxy)phenyl]-4,6-dimethyl-pyrimidine-5-carbonyl]amino]-N-methyl-butanediamide]
MIC [4]: 0.83 µM
